Data: patent publication US10821069B2, “Aqueous extract of truffle and cosmetic composition thereof” (ISP INVESTMENTS LLC, priority 2014, dated 2020)

Tested on: Normal human keratinocytes
Experiment: Mitochondrial ROS production after rotenone-induced production of ROS (MITOSOX staining)
Format: cell-based
Conditions: 1 μM Rotenone for 4 hours, no extract
Description: The purpose of this study is to determine the influence of the Truffle extract according to example 2 regarding the mitochondrial Reactive oxygen Species (ROS) production. Mitochondrial ROS were induced by rotenone, an electron transport chain complex inhibitor.
Method: Normal human keratinocytes extracted from a […] […] abdominal skin were seeded in 8 well culture PERMANOX® plastic slides (Thermo Scientific, Waltham, Mass., USA). Cells were pre-treated with two applications per day of the Truffle extract of example 2 (at 0.01% and 0.05%) for 48 h in KSFM medium (Gibco, Auckland, NZ) supplemented with 50 μg·ml-1 bovine pituitary extract (Gibco), 5 ng·ml-1 human recombinant EGF (Gibco) and 0.1 mg·ml-1 PRIMOCIN™ (Invivogen, San Diego, Calif., USA). Then cells were submitted to 1 μM Rotenone application for 4 hours. Immediately after the stress, culture medium was replaced with fresh KSFM for 1 hour. At the end of incubation, a 5 μM MITOSOX® (Life Technologies, Carlsbad, Calif., USA) solution was incubated further for 20 min at 37° C. in 5% CO2 atmosphere. […] Digital images were acquired with an inverted Zeiss Axiovert 200M microscope (Zeiss, Oberkochen, Germany) with a 20× objective. […] Statistical significance of the data was assessed by paired Student's t-test (n=3, p<0.05 was considered significant; p<0.01 as very significant and p<0.005 as highly significant).

## C=C(C)[C@H]1Cc2c(ccc3c2O[C@@H]2COc4cc(OC)c(OC)cc4[C@@H]2C3=O)O1 [rotenone]
  increase in ROS production in keratinocytes compared to untreated control: 45%
